Assay results published in patent US20140228287A1, “1-[(3-CYANO-PYRIDIN-2-YL)METHYL]-3-METHYL-7-(2-BUTYN-1-YL)-8-[3-(R)-AMINO-PIPERIDIN-1-YL]-AXANTHINE FOR THE TREATMENT OF A METABOLIC DISORDER OF A PREDOMINANTLY CARNIVOROUS NON-HUMAN ANIMAL” (BOEHRINGER INGELHEIM VETMEDICA GMBH, priority 2010, published 2014).
Counter-ions that a name gives are not always drawn. Like-named read-outs stand apart in the source and are kept apart here.

Experiments:
GLP-1 = experiment: OGTT in normal cats after 9 mg per cat: GLP-1 concentrations; format: in vivo; conditions: 9 mg/cat oral, OGTT beginning 1 h after
Method: Cats were fasted overnight and then lightly tranquilized with tiletamine/zolazepam (2 mg per cat intravenously (Fort Dodge Animal Health, Ft. Dodge, Iowa, USA). Glucose was administered via gastric tube (2 g/kg body weight; 80% w/v) after a baseline blood sample had been obtained. […]
Glucose measurements were performed using a colorimetric glucose oxidase method (DCL, Oxford, Conn., USA). Plasma insulin was measured as described in Hoenig et al. (1989), J. Endocrinol., vol. 121, p. 249-251. The concentrations of active GLP-1 were measured with an ELISA kit from Linco (St. Charles, Mo., USA). All samples were tested in duplicate. […] The interassay coefficient of variation (CV) was 7.6%, and the intra-assay CV was 12.1%.
An OGTT like in Example 11 was performed in […] beginning 1 h after oral administration of 9 mg 1-[(3-cyano-pyridin-2-yl)methyl]-3-methyl-7-(2-butyn-1-yl)-8-[3-(R)-amino-piperidin-1-yl]-xanthine monohydrochloride or placebo (2 groups with 6 animals each; 3 male and 3 females per group).

DPP IV = biological target: T1, DPP IV (Felis catus, UniProt Q9N2I7); experiment: DPP IV activity in obese/non-obese cats, 7 days once daily dosing; format: in vivo, cat; conditions: 9 mg daily, percent of 0 h
T1 construct: Blood samples for the determination of this compound and DPP IV activity were collected; from tissue; host or cells: plasma of domestic short hair / purpose-bred cats dosed orally
T1 sequence (Q9N2I7 38-765 limits assumed): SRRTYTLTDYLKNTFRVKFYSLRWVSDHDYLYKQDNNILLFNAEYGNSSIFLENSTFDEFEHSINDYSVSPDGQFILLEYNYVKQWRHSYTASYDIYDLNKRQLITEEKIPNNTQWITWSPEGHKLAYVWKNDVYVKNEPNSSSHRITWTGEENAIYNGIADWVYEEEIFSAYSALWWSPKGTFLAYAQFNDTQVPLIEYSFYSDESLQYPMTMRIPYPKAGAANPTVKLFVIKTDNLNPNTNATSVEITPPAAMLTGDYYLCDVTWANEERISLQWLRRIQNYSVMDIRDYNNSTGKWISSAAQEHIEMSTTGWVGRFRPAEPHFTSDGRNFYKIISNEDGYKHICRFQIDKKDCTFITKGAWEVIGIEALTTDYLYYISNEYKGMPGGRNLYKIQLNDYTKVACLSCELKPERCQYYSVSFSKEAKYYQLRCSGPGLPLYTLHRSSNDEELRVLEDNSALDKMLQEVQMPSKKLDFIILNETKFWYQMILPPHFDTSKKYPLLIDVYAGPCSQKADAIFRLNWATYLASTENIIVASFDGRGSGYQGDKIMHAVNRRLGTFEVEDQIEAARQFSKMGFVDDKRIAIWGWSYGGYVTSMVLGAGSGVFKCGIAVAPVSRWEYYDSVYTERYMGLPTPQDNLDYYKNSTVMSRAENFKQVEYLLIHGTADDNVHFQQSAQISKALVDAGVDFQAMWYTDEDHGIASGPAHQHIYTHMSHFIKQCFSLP
Source text: The aim of this exploratory, randomized, placebo controlled crossover study was to investigate the effect of 1-[(3-cyano-pyridin-2-yl)methyl]-3-methyl-7-(2-butyn-1-yl)-8-[3-(R)-amino-piperidin-1-yl]-xanthine monohydrochloride on DPP IV activity and on glucose concentrations in obese and non-obese cats after repeated oral administration over seven days.
Fourteen clinically healthy male and female (8 obese and 6 non-obese) purpose-bred cats were used in this study. The animals were randomly allocated to two groups of cats, obese and non-obese, and treated in a cross-over design with 9 mg 1-[(3-cyano-pyridin-2-yl)methyl]-3-methyl-7-(2-butyn-1-yl)-8-[3-(R)-amino-piperidin-1-yl]-xanthine monohydrochloride or placebo, once daily for 7 days, with a following wash-out period of 21 days.
Cats were fed once daily 40 min after administration of the compound or the placebo, respectively.
In parallel, DPP IV activity was assessed as above.

CC#CCn1c(N2CCC[C@@H](N)C2)nc2c1c(=O)n(Cc1ncccc1C#N)c(=O)n2C [1-[(3-cyano-pyridin-2-yl)methyl]-3-methyl-7-(2-butyn-1-yl)-8-[3-(R)-amino-piperidin-1-yl]-xanthine monohydrochloride]
GLP-1 concentration (GLP-1; 180 min after drug administration): 23.25 pmol/L | GLP-1 concentration (GLP-1; 240 min after drug administration): 14.45 pmol/L | GLP-1 concentration (GLP-1; 300 min after drug administration): 9.60 pmol/L | GLP-1 concentration (GLP-1; 360 min after drug administration): 6.04 pmol/L | activity at 9 mg (DPP IV; Non-obese cats (n = 6), 1 h, read-out: DPP-IV activity %, Max): 25.4% | activity at 9 mg (DPP IV; Non-obese cats (n = 6), 1 h, read-out: DPP-IV activity %, Mean ± STD): 13.8 ± 5.8% | activity at 9 mg (DPP IV; Non-obese cats (n = 6), 1 h, read-out: DPP-IV activity %, Median): 11.3% | activity at 9 mg (DPP IV; Non-obese cats (n = 6), 1 h, read-out: DPP-IV activity %, Min): 8.4% | activity at 9 mg (DPP IV; Non-obese cats (n = 6), 6 h, read-out: DPP-IV activity %, Max): 25% | activity at 9 mg (DPP IV; Non-obese cats (n = 6), 6 h, read-out: DPP-IV activity %, Mean ± STD): 14.4 ± 5.7% | activity at 9 mg (DPP IV; Non-obese cats (n = 6), 6 h, read-out: DPP-IV activity %, Median): 11.4% | activity at 9 mg (DPP IV; Non-obese cats (n = 6), 6 h, read-out: DPP-IV activity %, Min): 9.5% | activity at 9 mg (DPP IV; Non-obese cats (n = 6), 24 h, read-out: DPP-IV activity %, Max): 45.1% | activity at 9 mg (DPP IV; Non-obese cats (n = 6), 24 h, read-out: DPP-IV activity %, Mean ± STD): 20.1 ± 12% | activity at 9 mg (DPP IV; Non-obese cats (n = 6), 24 h, read-out: DPP-IV activity %, Median): 15.3% | activity at 9 mg (DPP IV; Non-obese cats (n = 6), 24 h, read-out: DPP-IV activity %, Min): 8.6% | activity at 9 mg (DPP IV; Non-obese cats (n = 6), 72 h, read-out: DPP-IV activity %, Max): 27.9% | activity at 9 mg (DPP IV; Non-obese cats (n = 6), 72 h, read-out: DPP-IV activity %, Mean ± STD): 18.2 ± 6% | activity at 9 mg (DPP IV; Non-obese cats (n = 6), 72 h, read-out: DPP-IV activity %, Median): 18.9% | activity at 9 mg (DPP IV; Non-obese cats (n = 6), 72 h, read-out: DPP-IV activity %, Min): 8.5% | activity at 9 mg (DPP IV; Non-obese cats (n = 6), 168 h, read-out: DPP-IV activity %, Max): 23.5% | activity at 9 mg (DPP IV; Non-obese cats (n = 6), 168 h, read-out: DPP-IV activity %, Mean ± STD): 17.4 ± 4.7% | activity at 9 mg (DPP IV; Non-obese cats (n = 6), 168 h, read-out: DPP-IV activity %, Median): 18.2% | activity at 9 mg (DPP IV; Non-obese cats (n = 6), 168 h, read-out: DPP-IV activity %, Min): 10.6% | activity at 9 mg (DPP IV; Obese cats (n = 8), 1 h, read-out: DPP-IV activity %, Max): 17.5% | activity at 9 mg (DPP IV; Obese cats (n = 8), 1 h, read-out: DPP-IV activity %, Mean ± STD): 12.1 ± 4% | activity at 9 mg (DPP IV; Obese cats (n = 8), 1 h, read-out: DPP-IV activity %, Median): 11.1% | activity at 9 mg (DPP IV; Obese cats (n = 8), 1 h, read-out: DPP-IV activity %, Min): 7.5% | activity at 9 mg (DPP IV; Obese cats (n = 8), 6 h, read-out: DPP-IV activity %, Max): 20% | activity at 9 mg (DPP IV; Obese cats (n = 8), 6 h, read-out: DPP-IV activity %, Mean ± STD): 11.9 ± 3.9% | activity at 9 mg (DPP IV; Obese cats (n = 8), 6 h, read-out: DPP-IV activity %, Median): 10.5% | activity at 9 mg (DPP IV; Obese cats (n = 8), 6 h, read-out: DPP-IV activity %, Min): 7.4% | activity at 9 mg (DPP IV; Obese cats (n = 8), 24 h, read-out: DPP-IV activity %, Max): 26.5% | activity at 9 mg (DPP IV; Obese cats (n = 8), 24 h, read-out: DPP-IV activity %, Mean ± STD): 17 ± 5.2% | activity at 9 mg (DPP IV; Obese cats (n = 8), 24 h, read-out: DPP-IV activity %, Median): 15.4% | activity at 9 mg (DPP IV; Obese cats (n = 8), 24 h, read-out: DPP-IV activity %, Min): 11.4% | activity at 9 mg (DPP IV; Obese cats (n = 8), 72 h, read-out: DPP-IV activity %, Max): 23.9% | activity at 9 mg (DPP IV; Obese cats (n = 8), 72 h, read-out: DPP-IV activity %, Mean ± STD): 18.4 ± 4.4% | activity at 9 mg (DPP IV; Obese cats (n = 8), 72 h, read-out: DPP-IV activity %, Median): 18.5% | activity at 9 mg (DPP IV; Obese cats (n = 8), 72 h, read-out: DPP-IV activity %, Min): 12.2% | activity at 9 mg (DPP IV; Obese cats (n = 8), 168 h, read-out: DPP-IV activity %, Max): 39.8% | activity at 9 mg (DPP IV; Obese cats (n = 8), 168 h, read-out: DPP-IV activity %, Mean ± STD): 19.9 ± 9% | activity at 9 mg (DPP IV; Obese cats (n = 8), 168 h, read-out: DPP-IV activity %, Median): 19.2% | activity at 9 mg (DPP IV; Obese cats (n = 8), 168 h, read-out: DPP-IV activity %, Min): 8.6%
